From PubChem BioAssay AID206 (DTP/NCI, 2004) come the findings set out here.

The test concerns nude mice, HT29 intrarenal xenograft, tumor weight T/C. Kind of test: NCI In Vivo Anticancer Drug Screen. Data for tumor model HT29;CX-1 Human Adenocarcinoma (MER+) (intrarenal inoculation) in NU/NU Swiss (nude) mice. Conditions: endpoint: mean tumor weight change, schedule: Q01DX010 (sc), vehicle: Klucel (hydroxypropylcellulose) (HPC), higher = larger tumour. Summed up:
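Endpoint measured as tumor size or survival; ratio reported is treated group over vehicle controls.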

Results filed as inconclusive are left out.

Turning to `C1CCC2[N-]CC3CCCCC3[N-]CC3CCCCC3[N-]CC3CCCCC3[N-]CC2C1.[Cu]` (stereo not drawn), the T/C (dose: 6.25 mg/kg/injection) was 35 % of control, the T/C (dose: 12.5 mg/kg/injection) is 49 % of control and the T/C (dose: 25.0 mg/kg/injection) is 54 % of control.
